Where two headings read alike, the source gives them in different places.
Experiments:
[1] = system: sting (Belonolaimus longicaudatus) nematodes; test: Sting nematode bench top soil assay; format: in vivo
Protocol: Populations of sting (Belonolaimus longicaudatus) nematodes are maintained on St. Augustine turf grass on soil in 15-cm pots. At test initiation the turf is removed from the pots and the soil containing nematode eggs, juveniles, and adults is subdivided into pots each containing a volume of 125 cm^3′ The compounds to be tested are dissolved in 3 ml of acetone using 3, 6, or 15 mg to achieve equivalent surface area application rates of 2, 4, or 10 kg/ha, respectively. The 3 ml acetone stock solution is added to 30 ml of water, and 5 ml of that solution is used to drench each of 6 replicate test pots prepared as described above. The treated pots containing nematodes are incubated in the laboratory at ambient temperature of approximately 25° C. After 3 days the soil from each pot is washed onto a modified Baermann apparatus comprised of a screen supporting a layer of filter paper on which the soil sample is placed and set in a dish of water. The samples are then incubated at 25° C. for 24 hours to allow the live nematodes to migrate through the paper and screen and into a water reservoir to be collected for counting with a light microscope. Nematodes that have been killed or immobilized by the test compounds are not able to migrate into the reservoir.

[2] = system: CD-1/Swiss derived albino mice; format: in vivo; details: for mortality, signs of gross toxicity and behavioral changes: three female mice, observed up to 14 days
Protocol: Acute oral toxicity testing was performed in mice in accordance with test method P203.UDP, as administered by Eurofins/Product Safety Laboratories (Dayton, N.J.). CD-1/Swiss derived albino mice were obtained and group housed in suspended solid bottom caging. The mice were fed rodent chow and filtered tap water was supplied ad libitum. Following acclimation to the laboratory setting, a group of animals was fasted overnight by removing food from the cages. After the fasting period, three female mice were selected based on vitality and initial body weights. The individual compound doses were calculated from these body weights.
The test substance was prepared as a 1% (50 mg/kg) or 5% (500 mg/kg) weight to weight (w/w) mixture in a 0.5% w/w solution of carboxymethylcellulose (CMC) in distilled water. A tissue homogenizer was used to create a homogeneous mixture. A dose of 50 or 500 mg/kg was administered to three healthy mice per dose level by oral intubation using a ball-tipped gavage needle attached to a syringe. After administration, the animals were returned to their cages, and feed was replaced immediately after dosing.
Body weights were recorded prior to initiation and on Days 7 and 14 or a soon as possible after death.

[3] = system: Meloidogyne incognita (RKN); test: Seed treatment test of root knot nematode on cucumber plants; format: in vivo; details: 20 mg ai/gram seed, cucumber seeds
Protocol: For a given concentration the chemical is dissolved in 500 ul of acetone and one gram of cucumber seed (RKN test) or soybean seed (SCN test) is added (e.g., 20 mg active ingredient in 500 ul acetone plus 1 gram of seed). The seed solutions are agitated until all seeds were thoroughly covered with the chemical solution. The acetone is then allowed to evaporate by air drying the seeds. The seeds are planted in 2-inch pots containing sandy soil and then the pots are inoculated with 1000 Meloidogyne incognita (RKN) or 1000 Heterodera glycines (SCN) eggs per pot three days after planting. Plants are rated for galling 14 days after egg inoculation for RKN or 28 days after egg inoculation for SCN.

[4] = system: caspase-3 in rat hepatoma derived H4IIE cells; test: Caspase-3 activity (DEVD-AMC) after compound exposure in H4IIE cells; format: cell-based; details: concentrations up to 300 μM
Protocol: Caspase 3 cleaves the tetrapeptide between D and AMC, thus releasing the fluorogenic […] AMC. Following the test article exposure to cells in 96-well plates, medium was aspirated from plates and PBS added to each well. Plates were stored at −80° C. to lyse cells and store samples until further analysis. On the day of analysis, plates were removed from freezer and thawed. Caspase buffer with fluorescent substrate was added to each well and incubated at room temperature for one hour. AMC release was measured in a spectrofluorometer at an excitation wavelength of 360 nm and an emission wavelength of 460 nm. Values are expressed as relative fluorescent units (RFU).

Meloidogyne incognita = test: Summer field evaluation of pre-plant incorporated compounds on squash; format: in vivo
Outline: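 PPI simulation: compound in acetone/Triton X-100 and water mixed into 80% sand/20% silt loam with chopped galled tomato roots, filling top 15 cm of 6 replicate field plots. M. incognita eggs/larvae (100 k per plot) injected 5 cm deep; three-week-old squash cv. Liberator III planted 4 days after treatment.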

CCOP(=O)(NC(C)C)Oc1ccc(SC)c(C)c1 (centres unmarked) [Fenamiphos, fenamiphos, reference compound]
Number of nematodes recovered from treated soil after 3 days incubation with the compound ([1]; Other: 11.1 kg fenamiphos as positive control): 20

c1ccc(-c2noc(-c3cccs3)n2)cc1 [compound 1822]
mortality, signs of gross toxicity and behavioral changes ([2]; 50 mg/kg oral): all animals survived, gained body weight, and appeared active and healthy | mortality, signs of gross toxicity and behavioral changes ([2]; 500 mg/kg oral): all animals died within three days | percent control (galling reduction) relative to the control blank treatment [3]: 76% | induction of caspase-3 (apoptosis marker) [4]: no induction of caspase-3

Brc1ccc(-c2cnc(-c3cccs3)o2)cc1 [compound 4776]
Number of nematodes recovered from treated soil after 3 days incubation with the compound ([1]; 2 kg/ha): 16 | Number of nematodes recovered from treated soil after 3 days incubation with the compound ([1]; 4 kg/ha): 19 | Number of nematodes recovered from treated soil after 3 days incubation with the compound ([1]; 10 kg/ha): 20 | mortality, signs of gross toxicity and behavioral changes ([2]; 500 mg/kg oral): two animals died within three days | oral toxicity ([2]; mice, oral, estimate based on the 50 and 500 mg/kg studies): lower than 500 mg/kg | percent control (galling reduction) relative to the control blank treatment [3]: 58%

Cc1cc(Cl)ccc1-c1noc(-c2ccco2)n1 [compound 5823]
0-3 vigor 16 DAP (Meloidogyne incognita; 4 kg (kg/ha) PPI, squash): 3.0 | 0-3 vigor 21 DAP (Meloidogyne incognita; 4 kg (kg/ha) PPI, squash): 3.0 | feeder root (3 = ave) 31 DAP (Meloidogyne incognita; 4 kg (kg/ha) PPI, squash): 2.7 | gall % 31 DAP (Meloidogyne incognita; 4 kg (kg/ha) PPI, squash): 3% | root wgt (g) 31 DAP (Meloidogyne incognita; 4 kg (kg/ha) PPI, squash): 22.6 g | top wgt (lbs) 31 DAP (Meloidogyne incognita; 4 kg (kg/ha) PPI, squash): 1.45 lbs | total fruit (lbs) (Meloidogyne incognita; 4 kg (kg/ha) PPI, squash): 1.44 lbs | control of M. incognita (in words) (Meloidogyne incognita; PPI application at 4 kg/ha): excellent control | induction of caspase-3 (apoptosis marker) [4]: no induction of caspase-3

Reference: patent publication US10827753B2, “Compositions and methods for controlling nematodes” (Monsanto Technology LLC, priority 2007, dated 2020)
